The numbers were not newly measured in patent US8911781B2, “Process of manufacture of novel drug delivery system: multilayer tablet composition of thiazolidinedione and biguanides” (Inventia Healthcare Private Limited, priority 2002, dated 2014), which cites them from elsewhere.

Molecules are shown by their SMILES. Where a name gives a salt, the structure may show the parent alone.

For data set [1] the following is noted: after ingestion.
For data set [2] the following is noted: at steady state concentrations; parent drug.

As to `CN(C)C(=N)N=C(N)N` [Metformin HCl], the “time to complete gastro-intestinal absorption” value in data set [1] is at most 6 h. Turning to `CCc1ccc(CCOc2ccc(CC3SC(=O)NC3=O)cc2)nc1` (centres unmarked) [Pioglitazone HCl], the “plasma elimination half-life (t½)” value in data set [2] was 3.3 to 4.9 h.
